{
  "source": "ChEMBL document CHEMBL1201862",
  "about": "“PubChem BioAssay data set” (2004)",
  "experiment_in_all_cases": "NCI-60 cell line screen, 48 h",
  "key": {"[1]": {"test_system": "M14"}, "[2]": {"test_system": "LOX IMVI"}, "[3]": {"test_system": "SK-MEL-2"}, "[4]": {"test_system": "RPMI-8226"}, "[5]": {"test_system": "SF-268"}, "[6]": {"test_system": "Hs-578T"}, "[7]": {"test_system": "SK-OV-3"}, "[8]": {"test_system": "PC-3"}, "[9]": {"test_system": "SR"}, "[10]": {"test_system": "DU-145"}, "[11]": {"test_system": "786-0"}, "[12]": {"test_system": "SK-MEL-5"}, "[13]": {"test_system": "SW-620"}, "[14]": {"test_system": "HCC 2998"}, "[15]": {"test_system": "HT-29"}, "[16]": {"test_system": "MCF7"}, "[17]": {"test_system": "NCI-H226"}, "[18]": {"test_system": "U-251"}, "[19]": {"test_system": "IGROV-1"}, "[20]": {"test_system": "UO-31"}, "[21]": {"test_system": "A549"}, "[22]": {"test_system": "K562"}, "[23]": {"test_system": "SNB-75"}, "[24]": {"test_system": "OVCAR-8"}, "[25]": {"test_system": "EKVX"}, "[26]": {"test_system": "HL-60"}, "[27]": {"test_system": "CAKI-1"}, "[28]": {"test_system": "SN12C"}, "[29]": {"test_system": "MDA-MB-231"}, "[30]": {"test_system": "MOLT-4"}, "[31]": {"test_system": "Malme-3M"}, "[32]": {"test_system": "TK-10"}, "[33]": {"test_system": "ACHN"}, "[34]": {"test_system": "T47D"}, "[35]": {"test_system": "HCT-116"}, "[36]": {"test_system": "NCI-H460"}, "[37]": {"test_system": "SF-295"}, "[38]": {"test_system": "UACC-62"}, "[39]": {"test_system": "OVCAR-4"}, "[40]": {"test_system": "UACC-257"}, "[41]": {"test_system": "A498"}, "[42]": {"test_system": "SNB-19"}, "[43]": {"test_system": "COLO 205"}, "[44]": {"test_system": "NCI/ADR-RES"}, "[45]": {"test_system": "MDA-MB-435"}, "[46]": {"test_system": "SK-MEL-28"}, "[47]": {"test_system": "KM12"}, "[48]": {"test_system": "NCI-H23"}, "[49]": {"test_system": "HCT-15"}, "[50]": {"test_system": "SF-539"}, "[51]": {"test_system": "CCRF-CEM"}, "[52]": {"test_system": "HOP-62"}, "[53]": {"test_system": "MDA-N"}},
  "note": "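In this assay, cells in 96-well plates receive the compound at five concentrations for 48 hours. Endpoints are linearly interpolated between the surrounding concentrations. Abbreviation: GI50, concentration required for 50% inhibition of growth.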 The source made the active and inactive calls. Cut-off read from the data, not from the text of the source: active = GI50 up to about 1.1 µM and inactive = higher.",
  "data": [
    {"smiles": "O=C(/C=C/c1cccs1)c1ccc([N+](=O)[O-])cc1", "values": [
      {"measurement": "GI50", "setting": "[1]", "result": "> 100 µM (inactive)"},
      {"measurement": "GI50", "setting": "[2]", "result": "74.5 µM (inactive)"},
      {"measurement": "GI50", "setting": "[3]", "result": "> 100 µM (inactive)"},
      {"measurement": "GI50", "setting": "[4]", "result": "49.4 µM (inactive)"},
      {"measurement": "GI50", "setting": "[5]", "result": "> 100 µM (inactive)"},
      {"measurement": "GI50", "setting": "[6]", "result": "65.5 µM (inactive)"},
      {"measurement": "GI50", "setting": "[7]", "result": "> 100 µM (inactive)"},
      {"measurement": "GI50", "setting": "[8]", "result": "> 100 µM (inactive)"},
      {"measurement": "GI50", "setting": "[9]", "result": "65.8 µM (inactive)"},
      {"measurement": "GI50", "setting": "[10]", "result": "> 100 µM (inactive)"},
      {"measurement": "GI50", "setting": "[11]", "result": "> 100 µM (inactive)"},
      {"measurement": "GI50", "setting": "[12]", "result": "> 100 µM (inactive)"},
      {"measurement": "GI50", "setting": "[13]", "result": "> 100 µM (inactive)"},
      {"measurement": "GI50", "setting": "[14]", "result": "> 100 µM (inactive)"},
      {"measurement": "GI50", "setting": "[15]", "result": "> 100 µM (inactive)"},
      {"measurement": "GI50", "setting": "[16]", "result": "61.7 µM (inactive)"},
      {"measurement": "GI50", "setting": "[17]", "result": "78.9 µM (inactive)"},
      {"measurement": "GI50", "setting": "[18]", "result": "> 100 µM (inactive)"},
      {"measurement": "GI50", "setting": "[19]", "result": "> 100 µM (inactive)"},
      {"measurement": "GI50", "setting": "[20]", "result": "26.9 µM (inactive)"},
      {"measurement": "GI50", "setting": "[21]", "result": "> 100 µM (inactive)"},
      {"measurement": "GI50", "setting": "[22]", "result": "66.1 µM (inactive)"},
      {"measurement": "GI50", "setting": "[23]", "result": "77.8 µM (inactive)"},
      {"measurement": "GI50", "setting": "[24]", "result": "> 100 µM (inactive)"},
      {"measurement": "GI50", "setting": "[25]", "result": "> 100 µM (inactive)"},
      {"measurement": "GI50", "setting": "[26]", "result": "83.2 µM (inactive)"},
      {"measurement": "GI50", "setting": "[27]", "result": "> 100 µM (inactive)"},
      {"measurement": "GI50", "setting": "[28]", "result": "> 100 µM (inactive)"},
      {"measurement": "GI50", "setting": "[29]", "result": "> 100 µM (inactive)"},
      {"measurement": "GI50", "setting": "[30]", "result": "71 µM (inactive)"},
      {"measurement": "GI50", "setting": "[31]", "result": "> 100 µM (inactive)"},
      {"measurement": "GI50", "setting": "[32]", "result": "> 100 µM (inactive)"},
      {"measurement": "GI50", "setting": "[33]", "result": "> 100 µM (inactive)"},
      {"measurement": "GI50", "setting": "[34]", "result": "> 100 µM (inactive)"},
      {"measurement": "GI50", "setting": "[35]", "result": "58.1 µM (inactive)"},
      {"measurement": "GI50", "setting": "[36]", "result": "> 100 µM (inactive)"},
      {"measurement": "GI50", "setting": "[37]", "result": "90.8 µM (inactive)"},
      {"measurement": "GI50", "setting": "[38]", "result": "> 100 µM (inactive)"},
      {"measurement": "GI50", "setting": "[39]", "result": "> 100 µM (inactive)"},
      {"measurement": "GI50", "setting": "[40]", "result": "> 100 µM (inactive)"},
      {"measurement": "GI50", "setting": "[41]", "result": "> 100 µM (inactive)"},
      {"measurement": "GI50", "setting": "[42]", "result": "94.8 µM (inactive)"},
      {"measurement": "GI50", "setting": "[43]", "result": "> 100 µM (inactive)"},
      {"measurement": "GI50", "setting": "[44]", "result": "83.4 µM (inactive)"},
      {"measurement": "GI50", "setting": "[45]", "result": "> 100 µM (inactive)"},
      {"measurement": "GI50", "setting": "[46]", "result": "> 100 µM (inactive)"},
      {"measurement": "GI50", "setting": "[47]", "result": "71.9 µM (inactive)"},
      {"measurement": "GI50", "setting": "[48]", "result": "> 100 µM (inactive)"},
      {"measurement": "GI50", "setting": "[49]", "result": "> 100", "unit": "µM"},
      {"measurement": "GI50", "setting": "[50]", "result": "> 100 µM (inactive)"},
      {"measurement": "GI50", "setting": "[51]", "result": "> 100 µM (inactive)"},
      {"measurement": "GI50", "setting": "[52]", "result": "> 100 µM (inactive)"},
      {"measurement": "GI50", "setting": "[53]", "result": "> 100 µM (inactive)"}
    ]}
  ]
}
